From patent US20250221981A1, “MAT2A INHIBITOR AND/OR TSG101 INHIBITOR FOR USE IN ANTIVIRAL THERAPY” (CAMBRIDGE ENTERPRISE LIMITED, priority 2022, published 2025)

Legend:
BKPyV [1] = assay: Western blot of BKPyV viral protein expression (LTAg, VP1) in RPTE/TERT1 cells; assay type: cell-based, BK polyomavirus; settings: MOI 1
Method: (C)(i) Effect of PF-9366 on viral early and late gene and cellular MAT2A expression: Cells were infected with BKPyV (MOI 3) in media containing appropriate drug concentrations. At 1 hpi infectious media was removed, cells were washed and fresh media with appropriate drug concentrations was added. Cells were harvested at 48 hpi and a western blot performed. Membranes were blotted for viral late gene VP1, LTAg, cellular MAT2A/MAT1A, and tubulin as a loading control.
(iii) Viral gene expression is modulated in response to PF-9366: The density of BKPyV VP1 and LTAg expression were measured, normalized to tubulin loading control (LiCor Image Studio Software), n=3.
(§1) Cells were treated with MAT2A inhibitors at 1 hr post infection and were harvested at 48 hr post infection at MOI 1. (A) Total infectious BKPyV synthesis expressed as fold change to DMSO control (FFU titre assay). (B) Total viral protein expression (LTAg and VP1) was analysed by western blot. Tubulin was used as loading control. All error bars represent SEM. Two sample paired T-test was used to determine significance (*p<0.05; **p<0.01; ***p<0.001, ****p<0.0001), all numerical data shown were obtained over 2 independent experiments.
(§2) RPTE/hTERT cells were treated with inhibitors at 1 hr post infection (PI), infected at MOI 1. (A) Viral growth curves using FFU titre assay in drug treated and untreated cells infected with BKPyV at MOI 1 for 48 hr PI, 72 hr PI and 96 hr PI. (B) Total viral protein expression (LTAg and VP1) from drug treatments and untreated control was analysed by western blot with samples harvested at 48 hr PI and 96 hr PI. Tubulin was used as loading control. All error bars represent SEM. All numerical data shown were obtained over 2 independent experiments.
It has previously been noted by Quinlan et al. (Nat Chem Biol. 2017 13 (7): 785-792) that treatment with PF-9366 can increase MAT2A expression as a compensatory mechanism within cells. To investigate this, cells were once again treated with a range of PF-9366 for 3 hours prior to infection (or DMSO treated). Cells were infected with BKPyV (MOI 3), washed at 1 hpi, and fresh drug treated media was added. At 48 hpi cells were harvested and protein expression was analysed by western blotting (FIG. 3C(i)). MAT2A expression was quantified from band intensities, normalised to the tubulin loading control and plotted (FIG. 3C(ii), n=3). A clear increase in the cellular expression of MAT2A was observed, up to an 8-fold increase at 10 μM PF-9366. Western blot analysis was also conducted on early viral gene (LTAg) and late viral gene (VP1) expression (FIG. 3C(iii), n=3).
Cell lysate preparation and western blots were performed as described in Ren et al. (J Gen Virol. 2012 February; 93 (Pt 2): 319-329). Primary antibodies used were ab53977 (VP1), PAb416 (LTAg), sc-166452 (MAT2A/1A), ab110226 (VP16), sc-53070 (ICP0), anti-Zika E Protein, and either anti-GAPDH or anti-tubulin as a loading control, followed by IRDye 680LT-, or IRDye 800CW-conjugated secondary antibodies. Imaging was performed using the LI-COR Odyssey Infrared Imaging system. Quantification was performed using LI-COR Image Studio Software.

BKPyV [2] = assay: Fluorescence focus unit (FFU) assay of infectious BKPyV from treated RPTE/TERT1 cells; assay type: cell-based, BK polyomavirus; settings: added 1 hr post infection, MOI 1
Method: (B) Effect of PF-9366 on viral replication: Cells were infected with BKPyV (MOI 1) in media containing appropriate drug concentrations. At 1 hpi infectious media was removed, cells were washed and fresh media with appropriate drug concentrations was added. At 48 hpi cells were harvested and infectious BKPyV was measured by FFU assay. n=3.
as §1, §2
The ability for PF-9366 to inhibit the production of infectious virus was then investigated. RPTE/TERT1 cells were once again treated with a concentration range of PF-9366 or DMSO as a control prior to infection, and as before, infected with BKPyV (MOI 1) then washed and media replaced at 1 hpi. At 48 hpi total virus was harvested from each condition and an FFU assay was conducted to determine BKPyV virus titre (FIG. 3B).
For BKPyV infections, RPTE/TERT1, RPTE/TERT1-Cas9 or RPTE/TERT1 MAT2A KO cells were infected with BKPyV at either a multiplicity of infection (MOI) of 5 for growth curves or an MOI of 3 or 1 for all other experiments, diluted in appropriate medium. At 1 hour post infection (hpi) medium was removed, cells were washed twice with phosphate-buffered saline (PBS), and fresh medium was added with or without inhibitors. At 24, 48, 72 or 96 hpi cells were either harvested for western blot, RT qPCR or virus titre by FFU assay, or fixed for immunofluorescence analysis.
FFU assays were used to determine the concentration of infectious BKPyV in experimental samples. RPTE/TERT1 cells were infected with sample dilutions, fixed at 48 hpi in 3% formaldehyde, and immunostained for VP1 expression as described in Evans et al. (Open Biol. 2015 August; 5 (8): 150041).
Example 1: PF-9366 (Sigma-Aldrich) and AG-270 (kindly supplied by Astra Zeneca) were diluted in 100% DMSO. Cells were drug treated at a range of concentrations in REBM supplemented with BulletKit (Lonza) for 3 hours prior to infection. Cells were infected with BK-Dunlop in media and appropriate drug dilution. At 1 hpi infectious media was removed, cells gently washed with PBS and media containing appropriate drug dilutions was added. At 48 hpi cells were either fixed in 3% formaldehyde for microscopy, or harvested by scraping up into fresh drug-free media.
TSG101 inhibitor Ilaprazole (Sigma-Aldrich) was diluted in 100% DMSO. Cells were treated at a range of inhibitor concentrations and combinations, in appropriate media for the cell type used, for either 3 hours prior to infection (HSV-1, Alphavirus and Flavivirus infections) or 1 hour post infection (BKPyV infection).

RPTE/hTERT cells = assay: Cell viability assay, CellTiter-Blue fluorescence
Method: RPTE/hTERT cells were treated with MAT2A inhibitors at increasing concentrations for 48 hrs and assayed for cell viability using CellTiter-Blue fluorescence. Experiments were conducted using biological triplicates.
Experiment was conducted using biological triplicates.
Cell viability was assessed using the Cell-Titer-Blue assay (Promega), following manufacturers guidelines.

[3] = 125 nM to 1 μM, dose dependent, 48 hr post infection

| Compound | early viral protein (LTAg) levels (western blot) (BKPyV [1]; [3]) | late viral protein (VP1) levels (western blot) (BKPyV [1]; [3]) | inhibition of BKPyV replication (total infectious BKPyV, FFU titre) (BKPyV [2]; 125 nM, 250 nM, 500 nM and 1 μM, 48 hr post infection) | effect on cell viability and metabolism (RPTE/hTERT cells; at concentrations inhibiting BKPyV replication, 48 hrs) | BKPyV protein expression (LTAg and VP1, western blot) (BKPyV [1]; Ilaprazole alone, 48 and 96 hr PI) | BKPyV viral replication (FFU titre) (BKPyV [2]; Ilaprazole alone) | effect on cell viability (RPTE/hTERT cells; Ilaprazole alone, every 48 hr until 144 hr) |
| --- | --- | --- | --- | --- | --- | --- | --- |
| CN(C)c1nc(=O)n(-c2ccccc2)c2cc(Cl)ccc12 [AZ28] | reduced | reduced | significant dose dependent inhibition | little effect | – | – | – |
| COc1ccnc(C[S+]([O-])c2nc3cc(-n4cccc4)ccc3[nH]2)c1C (stereo not shown) [Ilaprazole] | – | – | – | – | significantly inhibit | significantly inhibit | little effect |
